Results taken from patent US5219884A, “Immunosuppressant” (Taito Co., Ltd., priority 1990, dated 1993).
Read-outs that look alike come from different tables or passages of the source.

Assays:
[1] = test system: mouse allogenic mixed lymphocyte reaction (BALB/c responder, C57BL/6 stimulator spleen cells); test: mouse allogenic mixed lymphocyte reaction (MLR), blastogenesis by 3H-thymidine uptake; type: cell-based
Experimental: The immunosuppressive activity of the compounds (I) and their lactones was assayed by using mouse allogenic mixed lymphocyte reaction (hereinafter sometimes abbreviated as MLR). Mouse allogenic MLR was carried out by mixed culture of the BALB/c mouse (H-2^d) spleen cells as the responder cells and the mitomycin C-treated C57BL/6 (H-2^b) spleen cells as the stimulator cells in equal amounts.
The responder cells were prepared as follows: The spleen was resected from 5- to 6-week-old male BALB/c mice, and single cell suspension of spleen cells was prepared by using the RPMI1640 culture medium (containing 60 μg/ml of kanamycin sulfate, 2 mM of L-glutamine, 10 mM of N-2-hydroxyethylpiperazine-N'-2-ethanesulfonate (HEPES) and 0.1% sodium hydrogencarbonate) to which heat-inactivated fetal calf serum (hereinaftersometimes abbreviated as FCS) had been added to 5%. After hemolytic treatment, the cell suspension was adjusted to a concentration of 10^7 cells/ml by using the RPMI1640 culture medium supplemented with 10^-4 M 2-mercaptoethanol and 20% FCS, and was used as the responder cell suspension.
The stimulator cells were prepared as follows:
The spleen was resected from 5- to 6-week-old male C57BL/6 mice, and single cell suspension of spleen cells was prepared by using the RPMI1640 culture medium. After hemolytic treatment, the cells were treated with 40 μg/ml of mitomycin C at 37° C. for 60 minutes. After washing three times, the concentration of the cell suspension was adjusted to 10^7 cells/ ml by using the RPMI1640 culture medium supplemented with 10^-4 M 2-mercaptoethanol and 20% FCS, and was used as the stimulator cell suspension.
Fifty μl of the responder cell suspension, 50μl of the stimulator cell suspension prepared by the above method, and 100 μl of the test substance were placed in 96-well microculture plates, and were cultured at 37° C. in an atmosphere of 5% carbon dioxide for 4 days.
The blastogenesis of lymphocytes was assayed by a method of ^3 H-thymidine uptake as an index. That is, after termination of the culture, 0.5 μCi/well of ^3 H-thymidine was added and cultured for 4 hours. Cells were harvested by a cell-harvester, and the radioactivity incorporated into the cells was determined by a liquid scintillation counter to obtain the index of blastogenesis of lymphocytes in the mouse allogenic MLR. The suppression of the mouse allogenic MLR was evaluated by calculating the percent suppression by the following formula. [formula]
The test substance was dissolved in methanol or suspended in a mixture of methanol and acetic acid, and then diluted with the RPMI1640 culture medium.

[2] = cytotoxicity to tumor cell line MOLT4; type: cell-based, human; details: human, molt4 cells, read-out: Suppression
Experimental: (§1) Cytotoxicity to human tumor cell lines was examined as follows:
(§2) Cells of human cell lines, K562, MOLT4, U937, HL60, KATOIII, KB, PC-6, PC-14 and CCRF-CEM were separately suspended to the concentration of 2×10^5 cells/ml in the RPMI1640 culture medium supplemented with 20% FCS. Fifty μl of this suspension was added to each well of 96-well microculture plates to which 50 μl of the test solution had been added. After culturing at 37° C. in an atmosphere of 5% carbon dioxide for 72 hours, the absorbancy at 550 nm was measured in the same way as the colorimetry using MTT in Experimental Example 1, and the percent suppression was calculated in the same manner as in Experimental Example 14, which was used as the index of cytotoxicity.

MOLT4 = test: cytotoxicity to tumor cell line MOLT4; type: cell-based, human
Experimental: as §1, §2

HL60 = test: in vitro; type: cell-based, human
Experimental: as §1, §2

PC-14 = test: in vitro; type: cell-based, human
Experimental: as §1, §2

KB = test: in vitro; type: cell-based, human
Experimental: as §1, §2

K562 = test: in vitro; type: cell-based, human
Experimental: as §1, §2

CCRF-CEM = test: in vitro; type: cell-based, human
Experimental: as §1, §2

in vitro = type: cell-based, human; details: human, read-out: Suppression
Experimental: as §1, §2

U937 = test: in vitro; type: cell-based, human
Experimental: as §1, §2

mouse L929 cells = test: cytotoxicity to mouse L929 cells; type: cell-based; details: 550 nm
Experimental: (§3) Cytotoxicity to mouse L929 cells was assayed as follows:
(§4) L929 cells were suspended to the concentration of 1.5×10^5 cells/ml in the F12 culture medium supplemented with 10% FCS. One hundred μl of the suspension was added to each well of 96-well microculture plates, and cultured at 37° C. in an atmosphere of 5% carbon dioxide for 24 hours, to which 100 μl of the test solution was added and cultured for further 48 hours. After the culture, 100 μl of the supernatant was removed and the absorbancy at 550 nm was measured in the same way as the colormetry using MTT in Experimental Example 1. The percent suppression was calculated by the following formula used as the index of cytotoxicity. [formula]

[3] = cytotoxicity to mouse L929 cells; type: cell-based; details: mouse, l929 cells, read-out: Suppression
Experimental: as §3, §4

Which 3H-thymidine uptake ([1]; 0.001 μg/ml) does the source give for CCCCCCC(=O)CCCCCCCCCC(O)C(O)C(N)(CO)C(=O)O (stereo not shown) [Example 5] here?
Its 3H-thymidine uptake is 22321 cpm.

And the 3H-thymidine uptake ([1]; 0.01 μg/ml)?
Its 3H-thymidine uptake is 8182 cpm.

What about the 3H-thymidine uptake ([1]; 0.1 μg/ml) of the same compound?
The 3H-thymidine uptake was 1952 cpm.

And the inhibition at 0.001 µg/mL ([1]; Mus musculus, Lymphocyte, 0.001 μg/ml, read-out: Suppression)?
Its inhibition at 0.001 µg/mL is 23.5%.

And the inhibition at 0.01 µg/mL ([1]; Mus musculus, Lymphocyte, 0.01 μg/ml, read-out: Suppression)?
The inhibition at 0.01 µg/mL was 90.6%.

What about the inhibition at 0.1 µg/mL ([1]; Mus musculus, Lymphocyte, 0.1 μg/ml, read-out: Suppression) of the same compound?
Its inhibition at 0.1 µg/mL is 100%.

And the cytotoxicity at 72 h ([2]; 0.1 μg/ml)?
The cytotoxicity at 72 h was 4.7%.

What about the cytotoxicity at 72 h ([2]; 1.0 μg/ml) of the same compound?
The cytotoxicity at 72 h was 5.2%.

What about the cytotoxicity at 72 h ([2]; 10.0 μg/ml) of the same compound?
Its cytotoxicity at 72 h is 18.1%.

What about the Absorbancy (MOLT4; 0.1 μg/ml) of the same compound?
Its Absorbancy is 0.591.

And the Absorbancy (MOLT4; 1.0 μg/ml)?
The Absorbancy was 0.588.

And the Absorbancy (MOLT4; 10.0 μg/ml)?
Its Absorbancy is 0.508.

And the Absorbancy (HL60; 0.1 μg/ml)?
Its Absorbancy is 0.593.

And the Absorbancy (HL60; 1.0 μg/ml)?
The Absorbancy was 0.657.

And the Absorbancy (HL60; 10.0 μg/ml)?
Its Absorbancy is 0.590.

What about the Absorbancy (PC-14; 0.1 μg/ml) of the same compound?
The Absorbancy was 0.420.

And the Absorbancy (PC-14; 1.0 μg/ml)?
The Absorbancy was 0.396.

And the Absorbancy (PC-14; 10.0 μg/ml)?
The Absorbancy was 0.352.

And the Absorbancy (KB; 0.1 μg/ml)?
The Absorbancy was 0.761.

What about the Absorbancy (KB; 1.0 μg/ml) of the same compound?
The Absorbancy was 0.734.

And the Absorbancy (KB; 10.0 μg/ml)?
The Absorbancy was 0.711.

And the Absorbancy (K562; 0.1 μg/ml)?
The Absorbancy was 0.823.

What about the Absorbancy (K562; 1.0 μg/ml) of the same compound?
Its Absorbancy is 0.810.

What about the Absorbancy (K562; 10.0 μg/ml) of the same compound?
The Absorbancy was 0.780.

What about the Absorbancy (CCRF-CEM; 0.1 μg/ml) of the same compound?
Its Absorbancy is 0.485.

What about the Absorbancy (CCRF-CEM; 1.0 μg/ml) of the same compound?
Its Absorbancy is 0.466.

And the Absorbancy (CCRF-CEM; 10.0 μg/ml)?
Its Absorbancy is 0.394.

What about the cytotoxicity at 72 h (in vitro; ccrf-cem cells, 0.1 μg/ml) of the same compound?
The cytotoxicity at 72 h was 3.6%.

And the cytotoxicity at 72 h (in vitro; ccrf-cem cells, 1.0 μg/ml)?
The cytotoxicity at 72 h was 7.4%.

And the cytotoxicity at 72 h (in vitro; ccrf-cem cells, 10.0 μg/ml)?
Its cytotoxicity at 72 h is 21.7%.

What about the cytotoxicity at 72 h (in vitro; hl60 cells, 0.1 μg/ml) of the same compound?
Its cytotoxicity at 72 h is 20.5%.

And the cytotoxicity at 72 h (in vitro; hl60 cells, 1.0 μg/ml)?
The cytotoxicity at 72 h was 11.9%.

And the cytotoxicity at 72 h (in vitro; hl60 cells, 10.0 μg/ml)?
Its cytotoxicity at 72 h is 20.9%.

And the cytotoxicity at 72 h (in vitro; k562 cells, 0.1 μg/ml)?
Its cytotoxicity at 72 h is 1.6%.

And the cytotoxicity at 72 h (in vitro; k562 cells, 1.0 μg/ml)?
The cytotoxicity at 72 h was 3.1%.

And the cytotoxicity at 72 h (in vitro; k562 cells, 10.0 μg/ml)?
The cytotoxicity at 72 h was 6.7%.

And the cytotoxicity at 72 h (in vitro; kb cells, 0.1 μg/ml)?
The cytotoxicity at 72 h was 0%.

And the cytotoxicity at 72 h (in vitro; kb cells, 1.0 μg/ml)?
Its cytotoxicity at 72 h is 0%.

And the cytotoxicity at 72 h (in vitro; kb cells, 10.0 μg/ml)?
Its cytotoxicity at 72 h is 2.6%.

And the cytotoxicity at 72 h (in vitro; pc-14 cells, 0.1 μg/ml)?
The cytotoxicity at 72 h was 11.4%.

What about the cytotoxicity at 72 h (in vitro; pc-14 cells, 1.0 μg/ml) of the same compound?
Its cytotoxicity at 72 h is 16.5%.

And the cytotoxicity at 72 h (in vitro; pc-14 cells, 10.0 μg/ml)?
The cytotoxicity at 72 h was 25.7%.

What about the cytotoxicity at 72 h (in vitro; u937 cells, 0.1 μg/ml) of the same compound?
Its cytotoxicity at 72 h is 4.5%.

What about the cytotoxicity at 72 h (in vitro; u937 cells, 1.0 μg/ml) of the same compound?
Its cytotoxicity at 72 h is 0%.

And the Absorbancy (U937; 0.1 μg/ml)?
Its Absorbancy is 0.462.

And the Absorbancy (U937; 1.0 μg/ml)?
Its Absorbancy is 0.485.

What about the Absorbancy (mouse L929 cells; 0.1 μg/ml) of the same compound?
Its Absorbancy is 0.775.

And the Absorbancy (mouse L929 cells; 1 μg/ml)?
Its Absorbancy is 0.805.

What about the Absorbancy (mouse L929 cells; 10 μg/ml) of the same compound?
Its Absorbancy is 0.749.

And the cytotoxicity at 48 h ([3]; 0.1 μg/ml)?
Its cytotoxicity at 48 h is 0%.

And the cytotoxicity at 48 h ([3]; 1 μg/ml)?
Its cytotoxicity at 48 h is 0%.

And the cytotoxicity at 48 h ([3]; 10 μg/ml)?
Its cytotoxicity at 48 h is 0%.
